In US5561112A, “Pseudopeptide isosteres of gly-asp and their use as antithrombic agents” (Sandoz Ltd., priority 1992, dated 1996) one finds IC50 data, which are given here for eight molecules.

One assay deals with T1, GP IIb/IIIa (Homo sapiens, UniProt P05106+P08514).
T1 construct: GP IIb/IIIa is isolated from membranes of human blood platelets by triton X-100 extraction; from tissue; host or cells: human blood platelets (membranes)
T1 sequence (P08514 32-887 limits assumed): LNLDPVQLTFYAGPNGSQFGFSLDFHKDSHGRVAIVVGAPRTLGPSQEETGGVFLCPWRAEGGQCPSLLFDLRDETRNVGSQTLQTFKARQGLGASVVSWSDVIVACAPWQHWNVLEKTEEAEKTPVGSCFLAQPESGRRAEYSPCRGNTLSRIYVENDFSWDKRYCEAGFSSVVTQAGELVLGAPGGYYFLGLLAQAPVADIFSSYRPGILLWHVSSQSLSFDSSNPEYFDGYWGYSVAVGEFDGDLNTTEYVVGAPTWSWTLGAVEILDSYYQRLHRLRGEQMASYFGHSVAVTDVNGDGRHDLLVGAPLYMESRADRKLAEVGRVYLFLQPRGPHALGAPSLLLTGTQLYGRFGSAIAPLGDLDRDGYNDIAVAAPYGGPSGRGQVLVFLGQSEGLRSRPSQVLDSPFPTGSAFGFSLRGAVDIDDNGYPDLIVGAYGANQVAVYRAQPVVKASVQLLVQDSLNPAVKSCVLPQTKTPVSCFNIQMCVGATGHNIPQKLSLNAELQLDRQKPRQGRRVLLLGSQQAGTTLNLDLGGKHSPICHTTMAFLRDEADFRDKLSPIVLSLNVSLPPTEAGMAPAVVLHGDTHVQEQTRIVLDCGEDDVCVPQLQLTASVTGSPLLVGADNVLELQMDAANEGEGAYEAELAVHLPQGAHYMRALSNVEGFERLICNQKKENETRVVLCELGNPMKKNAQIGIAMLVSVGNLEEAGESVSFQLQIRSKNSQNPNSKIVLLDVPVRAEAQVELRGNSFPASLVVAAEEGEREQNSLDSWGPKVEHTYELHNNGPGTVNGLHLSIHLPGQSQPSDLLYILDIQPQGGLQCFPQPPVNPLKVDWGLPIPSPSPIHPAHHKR
T1 sequence (P05106 27-788): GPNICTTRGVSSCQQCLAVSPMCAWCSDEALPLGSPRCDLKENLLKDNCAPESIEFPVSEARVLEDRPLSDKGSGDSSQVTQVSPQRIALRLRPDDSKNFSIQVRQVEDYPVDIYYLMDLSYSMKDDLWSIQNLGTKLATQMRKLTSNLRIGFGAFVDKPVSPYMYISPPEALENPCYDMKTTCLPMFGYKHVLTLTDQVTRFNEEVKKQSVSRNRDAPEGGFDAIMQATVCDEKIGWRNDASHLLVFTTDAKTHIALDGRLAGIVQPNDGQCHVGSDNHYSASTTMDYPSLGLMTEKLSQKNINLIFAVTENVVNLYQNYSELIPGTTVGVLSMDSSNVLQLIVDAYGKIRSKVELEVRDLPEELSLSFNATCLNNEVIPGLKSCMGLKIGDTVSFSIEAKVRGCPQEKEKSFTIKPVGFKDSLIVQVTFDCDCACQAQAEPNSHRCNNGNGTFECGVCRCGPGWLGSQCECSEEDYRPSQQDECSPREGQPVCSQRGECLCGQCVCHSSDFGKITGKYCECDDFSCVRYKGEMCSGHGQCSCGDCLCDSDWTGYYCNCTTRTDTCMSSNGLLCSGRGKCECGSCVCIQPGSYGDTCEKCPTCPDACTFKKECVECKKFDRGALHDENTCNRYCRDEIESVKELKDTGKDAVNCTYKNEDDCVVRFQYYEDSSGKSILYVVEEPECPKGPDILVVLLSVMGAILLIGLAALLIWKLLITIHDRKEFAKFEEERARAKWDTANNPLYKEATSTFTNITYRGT
The assay can be described thus: Inhibition of binding of fibrinogen to isolated and immobilized GP IIb/IIIa (FB). Conditions: biotin-labelled fibrinogen; GP IIb/IIIa isolated from human blood platelet membranes, bonded to microtitre plates; read-out: FB: IC50 (inhibition of the fibrinogen GPIIb/IIIa binding). The source says:
a) Inhibition of binding of fibrinogen to isolated and immobilized GP IIb/IIIa: GP IIb/IIIa is isolated from membranes of human blood platelets by triton X-100 extraction and purified by chromatography on ion exchangers and by gel filtration. The receptor protein thus obtained is bonded to microtitre plates. The inhibition of the binding of biotin-labelled fibrinogen to the receptor in the presence of inhibitor is quantified.
The compounds of formula I effect an inhibition of the fibrinogen GP IIb/IIIa binding in a range of IC50 (concentration of compounds of formula I which reduce the binding of fibrinogen to the receptor by 50%) of between 0.5 and 20 nM.
(§1) The compounds of Examples 1 to 8 are tested to determine their IC50 values in the inhibition of the fibrinogen GPIIb/IIIa binding (FB) and inhibition of the ADP-induced platelet aggregation (PA) test procedures described above.

The next assay deals with human blood platelets. The assay can be described thus: Inhibition of the ADP-induced aggregation of human blood platelets in the presence of fibrinogen (PA). It is filed as cell-based. Conditions: washed human platelets, stimulated with ADP in the presence of fibrinogen, aggregometer. As to the method:
b) Inhibition of the ADP-induced aggregation of human blood platelets in the presence of fibrinogen: Blood platelets are isolated from fresh whole-blood by centrifugation, and washed. The washed platelets are resuspended in the presence of PGI2 and apyrase and stimulated with ADP ([…]) in the presence of fibrinogen. The ability of the platelets to aggregate in the presence or absence of inhibitors is quantified using an aggregometer.
The inhibition of the ADP-induced platelet aggregation is brought about by compounds of formula I in a range of IC50 (concentration of compounds of formula I at which 50% of platelet aggregation is inhibited) of between 20 and 100 nM.
as §1

Setting [1] is: read-out: PA: IC50 (inhibition of the ADP-induced platelet aggregation).

Read-outs that look alike come from different tables or passages of the source.

Regarding `COc1ccc(CCC(=O)N[C@@H]2CC(=O)O[C@H](CNC(=O)Cc3ccc(C(=N)N)cc3)C2)cc1` [Example 7, (3S,5S)-6-(4-amidinophenylacetylamino)-5-hydroxy-3-(4-methoxyphenylpropionylamino)-hexanoic acid-δ-lactone], the IC50 was 0.5 nM at GP IIb/IIIa and 80 nM in the assay with human blood platelets (setting [1]).
The corresponding values for `CC(C)CC(=O)N[C@@H]1CC(=O)O[C@H](CNC(=O)Cc2ccc(C(=N)N)cc2)C1` [Example 8, (3S,5S)-6-(4-amidino-phenylacetylamino)-5-hydroxy-3-(3-methyl-butyrylamino)-hexanoic acid-δ-lactone] are 0.9 nM and 110 nM.
Take `CC(C)CC(=O)N[C@@H](CCCCNC(=O)c1ccc(C(=N)N)cc1)CC(=O)O` [Example 6, (S)-3-(N-(3-methylbutyryl)amino]-7-[N-(p-amidinobenzoyl)amino]heptanoic acid]: the IC50 on GP IIb/IIIa was determined as 0.5 nM; with human blood platelets (Platelet), 15 nM.
For `COc1ccc(CCC(=O)N[C@@H](CCCNC(=O)Cc2ccc(C(=N)N)cc2)CC(=O)O)cc1` [Example 3, (S)-3-N-[3-(p-methoxyphenyl)propionyl]amino-6-[N-(p-amidinophenylacetyl)amino]hexanoic acid], the IC50 on GP IIb/IIIa is 1.1 nM; in the assay on human blood platelets (setting [1]), 31 nM.
For the molecule `N=C(N)c1ccc(CC(=O)NCCC[C@@H](CC(=O)O)NC(=O)CCC23CC4CC(CC(C4)C2)C3)cc1` [Example 5, (S)-3-[N-(3-adamant-1-ylpropionyl)amino]-6-[N-(p-amidinophenylacetyl)amino]hexanoic acid], the values for the IC50 at GP IIb/IIIa and in the assay on human blood platelets (Platelet) were 0.4 nM and 61 nM, respectively.
For `N=C(N)c1ccc(CC(=O)NCCC[C@@H](CC(=O)O)NC(=O)CC23CC4CC(CC(C4)C2)C3)cc1` [Example 4, (S)-3-[N-(adamant-1-ylacetyl)amino]-6-[N-(p-amidinophenylacetyl)amino]hexanoic acid], in that order: 2.2 nM and 67 nM.
As for `CC(C)CC(=O)N[C@@H](CCCNC(=O)Cc1ccc(C(=N)N)cc1)CC(=O)O` [Example 2, (S)-3-[N-(3-methylbutyryl)amino]-6-[N-(p-amidinophenylacetyl)amino]hexanoicacid], the IC50 at GP IIb/IIIa was found to be 1.7 nM; in the assay with human blood platelets (Platelet) it was 100 nM.
Turning to `Cc1ccc(S(=O)(=O)N[C@@H](CCCNC(=O)Cc2ccc(C(=N)N)cc2)CC(=O)O)cc1` [Example 1, (S)-3-(N-tosylamino)-6-[N-(p-amidinophenylacetyl)amino]hexanoic acid], the IC50 came out at 7.6 nM on GP IIb/IIIa and 640 nM in the assay on human blood platelets (Platelet).
